Laboratory results as given in patent US11236055B2 (Venenum Biodesign, LLC, priority 2016, dated 2022).

Assays:
human TGR5 receptor = target: T1, human TGR5 receptor (Homo sapiens, UniProt Q8TDU6); assay: Human TGR5 cAMP production assay; assay type: cell-based; details: human TGR5, luminescent cAMP assay; coded A-D; read-out: Human TGR5 Lum. cAMP Activity (EC50)
T1 construct: host or cells: CHO-K1 (hTGR5-CHO cells)
T1 sequence (Q8TDU6 1-330): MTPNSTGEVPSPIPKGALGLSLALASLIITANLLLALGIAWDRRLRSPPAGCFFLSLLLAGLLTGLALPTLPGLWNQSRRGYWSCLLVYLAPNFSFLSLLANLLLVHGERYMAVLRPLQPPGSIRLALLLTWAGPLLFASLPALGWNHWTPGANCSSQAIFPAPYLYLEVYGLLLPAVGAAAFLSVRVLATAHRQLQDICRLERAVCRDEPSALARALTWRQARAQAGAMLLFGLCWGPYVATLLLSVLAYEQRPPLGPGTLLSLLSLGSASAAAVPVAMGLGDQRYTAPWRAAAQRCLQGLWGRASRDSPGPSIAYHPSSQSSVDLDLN
Procedure: Human TGR5 cAMP Production Assay
We evaluated the Compounds of the present invention for their ability to induce cAMP production using CHO-K1 cells overexpressing the human TGR5 receptor. CHO-K1 cells stably expressing human TGR5 receptor (accession number NM_001077194.1 (hTGR5) (i.e., hTGR5-CHO cells) were purchased from DiscoveRx Corporation (Fremont, Calif.). hTGR5-CHO cells were grown in Ham's F-12 media supplemented with 10% Fetal Bovine Serum, 1% Penicillin-Streptomycin, 2 mM L-Alanine L-Glutamine (Glutamax), and 800 μg/mL Geneticin selection. The cAMP production assay was performed using DiscoveRx's cAMP XS+ kit (Catalog No. 90-0075XL) following the manufacturer's recommended protocol. Briefly, hTGR5-CHO cells were harvested using non-enzymatic cell dissociation buffer (Sigma-Aldrich, St. Louis, Mo.) and 1×10^6 cells were combined in Phosphate-Buffered Saline (PBS) to a final volume of 496 μL to which 4 μL of 125 mM IBMX (Sigma-Aldrich, St. Louis, Mo.) was added. 500 μL of cAMP antibody solution was added to the harvested cells and incubated at room temperature for 20 min.
Test compounds were serially diluted (half-log dilutions) in DMSO and then further diluted 1:50 in PBS, 10 mM HEPES buffer. 2 μL of serially diluted compound was added to a 384-well low volume plate (Greiner; cat #784075) and centrifuged briefly. 2 μL of the cell/cAMP antibody mixture was then added to each compound-containing well and allowed to incubate at room temperature for one hour. Following incubation, the XS+ kits' ED/Lysis/CL Substrate Working Solution was prepared following the manufacturer's recommended protocol and 4 μL was added to each well of the plate. The plate was then incubated for one hour at room temperature. Following incubation, 4 μL of Enzyme Acceptor reagent was added to the plate and allowed to incubate overnight at room temperature. Luminescent signal was then detected using the Viewlux instrument (Perkin-Elmer, Waltham, Mass.).
(§1) In Table 33, EC50 values for both human and mouse cells were determined according to the TGR5 cAMP assays described above.

mouse TGR5 receptor = target: T2, mouse TGR5 receptor (Mus musculus, UniProt Q80SS6); assay: Mouse TGR5 cAMP production assay (HTRF, Cisbio cAMP HiRange); assay type: cell-based; details: HEK293-EBNA cells overexpressing mouse TGR5, HTRF cAMP HiRange; coded A-D
T2 construct: expressed in transfected cells; host or cells: HEK293-EBNA (293 c18, ATCC CRL10852), Hygromycin B selection
T2 sequence (Q80SS6 1-329): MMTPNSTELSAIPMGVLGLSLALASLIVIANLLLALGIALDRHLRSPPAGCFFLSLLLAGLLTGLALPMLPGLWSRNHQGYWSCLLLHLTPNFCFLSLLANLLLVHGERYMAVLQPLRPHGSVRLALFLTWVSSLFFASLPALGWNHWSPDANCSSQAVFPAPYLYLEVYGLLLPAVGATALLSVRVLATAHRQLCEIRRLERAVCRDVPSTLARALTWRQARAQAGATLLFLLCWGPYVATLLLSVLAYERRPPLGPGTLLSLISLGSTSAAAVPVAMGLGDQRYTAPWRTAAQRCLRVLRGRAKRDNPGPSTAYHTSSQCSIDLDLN
Source text: Mouse TGR5 cAMP Production Assay
We evaluated compounds of the present invention for their ability to induce cAMP production in HEK-EBNA cells overexpressing the mouse TGR5 receptor. Human embryonic kidney cells (HEK293-EBNA) stably expressing mouse TGR5 receptor were established using the following procedure. Specifically, a commercially-obtained gene encoding mouse TGR5 (accession number BC116914) from Thermo Scientific (Waltham, Mass.) was cloned into an episomal expression vector. The resulting expression plasmid was then transfected into 293 c18 (ATCC® CRL10852™) cells, which express the Epstein-Barr virus nuclear antigen EBNA1 and can support the replication of episomal vectors. Selection for the plasmid was maintained with Hygromycin B. Cells were cultured and maintained in DMEM (Sigma; cat #6429) supplemented with 10% Fetal Bovine Serum, 1% penicillin/streptomycin, 2 mM L-alanine L-glutamine (GlutaMax), and 250 μg/mL Hygromycin.
2. HTRF cAMP Production Assay
In this second cAMP production assay, the cAMP production was measured in 384-well low volume plates (Greiner; cat #784075) using the Cisbio™ cAMP HiRange HTRF Assay Kit (Cisbio) according to the manufacturer's protocol.
Briefly, compounds were initially diluted in 100% DMSO (12-point serial dilution by half logs) in a 96-well plate and then were further diluted 1:50 in PBS containing 10 mM HEPES. 5 μL were transferred to the 384-well assay plate in duplicate. HEK293-EBNA cells stably overexpressing mouse TGR5 were harvested using non-enzymatic cell dissociation buffer (Sigma), spun down, then resuspended in serum-free DMEM with 500 μM IBMX at a density of 500,000 cells/mL. 5 μL of cell suspension was transferred to each well of the 384-well assay plate already containing compound. The plate was covered and incubated at room temperature for 1 hour. The d2-cAMP and anti-cAMP Ab-cryptate stock solutions were prepared as per kit instructions. Then 5 μL of each conjugate (d2 and cryptate) were added to each well of the assay plate. The plate was covered and incubated at room temperature for 1 hour. The plate was read on an Envision™ plate reader (Perkin Elmer).
as §1

| Compound | EC50 (human TGR5 receptor) | EC50 (mouse TGR5 receptor) |
| --- | --- | --- |
| Cc1cnccc1-c1cccc(C(C)(C)NS(=O)(=O)c2cc(Br)ccc2C)c1 [Compound 2BW] | < 100 nM | 100 to 999 nM |
| Cc1cnccc1-c1cccc(C(C)(C)NS(=O)(=O)c2ccccc2C)c1 [Compound 2BX] | < 100 nM | < 100 nM |
| CCc1cnccc1-c1cccc(C(C)(C)NS(=O)(=O)c2cccc(Cl)c2C)c1 [Compound 2BY] | < 100 nM | < 100 nM |
| Cc1cnccc1-c1cccc([C@H](CCCC#N)NS(=O)(=O)c2cccc(Cl)c2C)c1 [Compound 2BZ] | < 100 nM | < 100 nM |
| CCc1cnccc1-c1cc(OC)cc(C(C)(C)NS(=O)(=O)c2ccccc2C(F)(F)F)c1 [Compound 2CD] | 100 to 999 nM | 100 to 999 nM |
| CC(C)(NS(=O)(=O)c1ccccc1C(F)(F)F)c1cccc(-c2ccc(=O)[nH]c2)c1 [Compound 3, N-(2-(3-(6-oxo-1,6-dihydropyridin-3-yl)phenyl)propan-2-yl)-2-(trifluoromethyl)benzenesulfonamide] | 100 to 999 nM | 1000 to 30000 nM |
| Cc1c(Cl)cccc1S(=O)(=O)N[C@@H](C)c1cccc(-c2ccnn2C)c1 [Compound 4, (S)-3-Chloro-2-methyl-N-(1-(3-(1-methyl-1H-pyrazol-5-yl)phenyl)ethyl)benzenesulfonamide] | 100 to 999 nM | 1000 to 30000 nM |
| Cc1nccc(-c2cccc(C(C)(C)NS(=O)(=O)c3cccc(C(F)(F)F)c3)c2)c1C [Compound 5AC, N-(2-(3-(2,3-dimethylpyridin-4-yl)phenyl)propan-2-yl)-3-(trifluoromethyl)-benzenesulfonamide] | 1000 to 30000 nM | 1000 to 30000 nM |
| CC(C)(NS(=O)(=O)c1cccc(C(F)(F)F)c1)c1cccc(-c2ccncc2CO)c1 [Compound 5AE, N-(2-(3-(3-(hydroxymethyl)-pyridin-4-yl)phenyl)propan-2-yl)-3-(trifluoromethyl)benzenesulfonamide] | < 100 nM | 1000 to 30000 nM |
| CC(C)(NS(=O)(=O)c1cccc(C(F)(F)F)c1)c1cccc(-c2ccc3nccn3c2)c1 [Compound 5AF, N-(2-(3-(imidazo[1,2-a]pyridin-6-yl)phenyl)propan-2-yl)-3-(trifluoromethyl)benzenesulfonamide] | 100 to 999 nM | 1000 to 30000 nM |
| CC(C)(NS(=O)(=O)c1ccccc1C(F)(F)F)c1cccc(-c2ccc3nccn3c2)c1 [Compound 5AJ, N-(2-(3-(imidazo[1,2-a]pyridin-6-yl)phenyl)propan-2-yl)-2-(trifluoromethyl)benzenesulfonamide] | 100 to 999 nM | 1000 to 30000 nM |
| Cc1cc2nccn2cc1-c1cccc(C(C)(C)NS(=O)(=O)c2ccccc2C(F)(F)F)c1 [Compound 5AK, N-(2-(3-(7-methylimidazo[1,2-a]pyridin-6-yl)phenyl)propan-2-yl)-2-(trifluoromethyl)benzenesulfonamide] | 100 to 999 nM | 1000 to 30000 nM |
| CC(C)(NS(=O)(=O)c1ccccc1C(F)(F)F)c1cccc(-c2ccc3[nH]cnc3c2)c1 [Compound 5AL, N-(2-(3-(1H-benzo[d]imidazol-5-yl)phenyl)propan-2-yl)-2-(trifluoromethyl)benzenesulfonamide] | 1000 to 30000 nM | > 30000 nM |
| CC(C)(NS(=O)(=O)c1ccccc1C(F)(F)F)c1cccc(-c2cnc3nccn3c2)c1 [Compound 5AM, N-(2-(3-(imidazo [1,2-a]pyrimidin-6-yl)phenyl)propan-2-yl)-2-(trifluoromethyl)benzenesulfonamide] | 1000 to 30000 nM | 1000 to 30000 nM |
| CC(C)(NS(=O)(=O)c1ccccc1C(F)(F)F)c1cccc(-c2ccncc2CO)c1 [Compound 5AN, N-(2-(3-(3-(hydroxymethyl)pyridin-4-yl)phenyl)propan-2-yl)-2-(trifluoromethyl)benzenesulfonamide] | < 100 nM | 100 to 999 nM |
| CCc1cnccc1-c1cccc(C(C)(C)NS(=O)(=O)c2ccccc2[N+](=O)[O-])c1 [Compound 5AO, N-(2-(3-(3-ethylpyridin-4-yl)phenyl)propan-2-yl)-2-nitrobenzenesulfonamide] | < 100 nM | < 100 nM |
| Cc1cnccc1-c1cccc(C(C)(C)NS(=O)(=O)c2ccccc2[N+](=O)[O-])c1 [Compound 5AP, N-(2-(3-(3-methylpyridin-4-yl)phenyl)propan-2-yl)-2-nitrobenzenesulfonamide] | < 100 nM | 100 to 999 nM |
| CCc1cnccc1-c1cccc([C@H](C)NS(=O)(=O)c2ccccc2C(F)(F)F)c1 [Compound 5AQ, (S)-N-(1-(3-(3-ethylpyridin-4-yl)phenyl)ethyl)-2-(trifluoromethyl)benzenesulfonamide] | < 100 nM | < 100 nM |
| Cc1cnccc1-c1cccc([C@H](C)NS(=O)(=O)c2ccccc2C(F)(F)F)c1 [Compound 5AR, (S)-N-(1-(3-(3-methylpyridin-4-yl)phenyl)ethyl)-2-(trifluoromethyl)benzenesulfonamide] | < 100 nM | 100 to 999 nM |
| CCc1cnccc1-c1cccc([C@@H](C)NS(=O)(=O)c2ccccc2C(F)(F)F)c1 [Compound 5AS, (R)-N-(1-(3-(3-ethylpyridin-4-yl)phenyl)ethyl)-2-(trifluoromethyl)benzenesulfonamide] | < 100 nM | 100 to 999 nM |
| Cc1cnccc1-c1cccc([C@@H](C)NS(=O)(=O)c2ccccc2C(F)(F)F)c1 [Compound 5AT, (R)-N-(1-(3-(3-methylpyridin-4-yl)phenyl)ethyl)-2-(trifluoromethyl)benzenesulfonamide] | < 100 nM | 100 to 999 nM |
| CC[C@H](NS(=O)(=O)c1ccccc1C(F)(F)F)c1cccc(-c2ccc3nccn3c2)c1 [Compound 5AX, (S)-N-(1-(3-(imidazo[1,2-a]pyridin-6-yl)phenyl)propyl)-2-(trifluoromethyl)benzenesulfonamide] | 1000 to 30000 nM | 1000 to 30000 nM |
| CC[C@H](NS(=O)(=O)c1cccc(C(F)(F)F)c1)c1cccc(-c2ccncc2C)c1 [Compound 5AY, (S)-N-(1-(3-(3-methylpyridin-4-yl)phenyl)propyl)-3-(trifluoromethyl)benzenesulfonamide] | < 100 nM | 100 to 999 nM |
